Reference: publication PMC6499206, “Quantification of Volatile Metabolites Derived From Garlic (Allium sativum) in Human Urine” (Frontiers in Nutrition, 2019)

Experiment: Quantification of garlic-derived metabolites in human urine after ingestion of 3 g raw garlic (SIDA, SAFE, HRGC-MS / HRGC-GC-MS)
Assay type: in vivo
Set-up: metabolite in urine related to creatinine: unit not given here
Details: for highest detected concentration of the sample series: same bulb
From the text: Human urine samples were obtained from 18 volunteers (age 22–38 years, mean 27 years; 11 females, 7 males); thereby, one volunteer conducted the whole experimental series twice. At the time of examination, volunteers reported no known illness that might have potentially influenced the metabolism or the excretion of urine. The test persons were instructed to avoid foods that were rich in sulfur-containing substances at the testing day as well as 2 days preceding the testing day, namely garlic, onion, wild garlic, chives, cabbage, and leek, and were only allowed to consume the garlic sample provided in the course of the experiments. Additionally, subjects were asked to keep records of the food (including food supplements) and beverages they consumed during these 3 testing days. Generally, the overall panelists' requirements were in accordance with our previous studies ([5], [16]).
On the sampling day, the outer garlic cloves of a whole garlic bulb were peeled and cut into ~3 mm cubes by using a garlic cutter (Genius GmbH, Limburg/Lahn, Germany). Subsequently these cubes were thoroughly mixed and aliquoted into 3 g portions. Three to four test persons conducted the experiment at the same day. Each test person was asked to ingest a garlic portion of 3 g. In total, eight consecutive urine samples were provided by each test person, comprising one whole urine set. The samples were collected in sterile brown glass bottles, with sampling times as follows: one sample was provided directly prior to garlic consumption. The series of the second to eighth sample was then obtained at about 0.5, 1, 2, 4, 6, 8, and 24 h after garlic consumption, respectively. Between the first urine sample (prior to garlic consumption) and the seventh urine sample (8 h after garlic consumption) test persons only spent urine at the specific time points mentioned before. Another sample was provided at the next morning (24 h after garlic consumption). Between the samples provided 8 and 24 h after garlic consumption no urine was collected. All samples were immediately placed into a −80°C freezer and were kept frozen until further analysis.
The samples of each set were termed according to their sampling time. The following list provides the time intervals that are related to the respective sample name: • - pre: before garlic consumption • - 0.5 h post: 0.4–0.8 h after garlic consumption • - 1 h post: 0.9–1.3 h after garlic consumption • - 2 h post: 1.8 h−2.2 h after garlic consumption • - 4 h post: 3.8–4.4 h after garlic consumption • - 6 h post: 5.8–6.4 h after garlic consumption • - 8 h post: 7.8–8.4 h after garlic consumption • - 24 h post: 23.8–25.6 h after garlic consumption
A creatinine kit (Labor+Technik Eberhard Lehmann GmbH, Berlin, Germany) was used to determine the creatinine content in each urine sample. The determination principle of this kit is based on the reaction of creatinine with picric acid under basic conditions (Jaffé reaction). The formed complex was detected photometrically at a wavelength of 492 nm.
For quantification purposes, the deuterated standards ^2H3-AMS, ^2H3-AMSO, and ^2H3-AMSO2 were added to the sample and stirred for 10 min. Subsequently, DCM was added in a ratio of 1:2 (DCM/human urine; v/v) and this solution was stirred for further 30 min at room temperature. To isolate the volatile fraction from the urine samples we then applied SAFE-distillation ([17]), thereby distilling the respective samples at 50°C. After completion of the distillation process, 10 mL of DCM were applied in each case to rinse the SAFE apparatus and to ensure complete transition of the volatile compounds. This process was repeated with another 10 mL of DCM. After thawing, the obtained aqueous distillate phase was extracted three times with 25 mL DCM. The organic phases were combined, dried over anhydrous Na2SO4 and concentrated to a total volume of 100 μL by means of Vigreux distillation and subsequent micro-distillation at 50°C. […]

[1] = U XII, 2 h post (1.85 h), 3 g raw garlic
[2] = U XII, 4 h post (3.80 h), 3 g raw garlic
[3] = U XII, 6 h post (5.82 h), 3 g raw garlic
[4] = U XII, 8 h post (7.82 h), 3 g raw garlic
[5] = U XII, 24 h post (23.92 h), 3 g raw garlic
[6] = U XII, pre (-0.08 h), 3 g raw garlic
[7] = U XIII, 0.5 h post (0.42 h), 3 g raw garlic
[8] = U XIII, 1 h post (0.92 h), 3 g raw garlic
[9] = U XIII, 2 h post (1.92 h), 3 g raw garlic
[10] = U XIII, 4 h post (3.92 h), 3 g raw garlic
[11] = U XIII, 6 h post (5.92 h), 3 g raw garlic
[12] = U XIII, 8 h post (7.92 h), 3 g raw garlic
[13] = U XIII, 24 h post (23.92 h), 3 g raw garlic
[14] = U XIII, pre (-0.08 h), 3 g raw garlic

Question: With `C=CCS(C)(=O)=O` [AMSO2, allyl methyl sulfone] as the molecule, how does the “metabolite concentration in urine” value [1] read?
Answer: 48.2 µg/kg

Question: And the “metabolite concentration in urine, creatinine-normalized” value [1]?
Answer: 72.4 µg/mmol creatinine

Question: What about the “metabolite concentration in urine” value [2] of the same molecule?
Answer: 76.1 µg/kg

Question: What about the “metabolite concentration in urine, creatinine-normalized” value [2] of the same molecule?
Answer: 28.5 µg/mmol creatinine

Question: What about the “metabolite concentration in urine” value [3] of the same molecule?
Answer: 82.8 µg/kg

Question: What about the “metabolite concentration in urine, creatinine-normalized” value [3] of the same molecule?
Answer: 14.3 µg/mmol creatinine

Question: And the “metabolite concentration in urine” value [4]?
Answer: 61.4 µg/kg

Question: What about the “metabolite concentration in urine, creatinine-normalized” value [4] of the same molecule?
Answer: 21.6 µg/mmol creatinine

Question: What about the “metabolite concentration in urine” value [5] of the same molecule?
Answer: 6.6 µg/kg

Question: And the “metabolite concentration in urine, creatinine-normalized” value [5]?
Answer: 0.4 µg/mmol creatinine

Question: What about the “metabolite concentration in urine” value [6] of the same molecule?
Answer: 2.0 µg/kg

Question: What about the “metabolite concentration in urine, creatinine-normalized” value [6] of the same molecule?
Answer: 0.1 µg/mmol creatinine

Question: What about the “metabolite concentration in urine” value [7] of the same molecule?
Answer: 19.8 µg/kg

Question: And the “metabolite concentration in urine, creatinine-normalized” value [7]?
Answer: 12.4 µg/mmol creatinine

Question: And the “metabolite concentration in urine” value [8]?
Answer: 145.0 µg/kg

Question: What about the “metabolite concentration in urine, creatinine-normalized” value [8] of the same molecule?
Answer: 58.5 µg/mmol creatinine

Question: And the “metabolite concentration in urine” value [9]?
Answer: 182.5 µg/kg

Question: And the “metabolite concentration in urine, creatinine-normalized” value [9]?
Answer: 52.4 µg/mmol creatinine

Question: And the “metabolite concentration in urine” value [10]?
Answer: 174.3 µg/kg

Question: And the “metabolite concentration in urine, creatinine-normalized” value [10]?
Answer: 36.8 µg/mmol creatinine

Question: What about the “metabolite concentration in urine” value [11] of the same molecule?
Answer: 105.0 µg/kg

Question: What about the “metabolite concentration in urine, creatinine-normalized” value [11] of the same molecule?
Answer: 9.0 µg/mmol creatinine

Question: What about the “metabolite concentration in urine” value [12] of the same molecule?
Answer: 67.5 µg/kg

Question: What about the “metabolite concentration in urine, creatinine-normalized” value [12] of the same molecule?
Answer: 7.7 µg/mmol creatinine

Question: What about the “metabolite concentration in urine” value [13] of the same molecule?
Answer: 8.5 µg/kg

Question: What about the “metabolite concentration in urine, creatinine-normalized” value [13] of the same molecule?
Answer: 1.0 µg/mmol creatinine

Question: What about the “metabolite concentration in urine” value [14] of the same molecule?
Answer: < LOD^3

Question: And the “metabolite concentration in urine, creatinine-normalized” value [14]?
Answer: < LOD^3

Question: And the “variation factor of the concentration maxima between test persons” value (Urine XIII-XVI, highest vs lowest maximum)?
Answer: 2.2

Question: What about the “highest detected concentration of the sample series” value (shortened to “highest detected concentration”) (Urine XIII, 3 g raw garlic) of the same molecule?
Answer: 58.5 μg/mmol creatinine

Question: What about the “highest detected concentration” value (Urine XIV (AMS: printed Urine UIV), 3 g raw garlic) of the same molecule?
Answer: 60.1 μg/mmol creatinine

Question: What about the “highest detected concentration” value (Urine XV, 3 g raw garlic) of the same molecule?
Answer: 83.1 μg/mmol creatinine

Question: What about the “time of highest concentration in urine after garlic consumption” value (Urine XVI, 3 g raw garlic) of the same molecule?
Answer: 4 h

Question: And the “highest detected concentration” value (Urine XVI, 3 g raw garlic)?
Answer: 37.19 μg/mmol creatinine

Question: And the “metabolite in urine related to creatinine” value (“metabolite in urine related” below) (urine set U XIX, 0.5 h post (0.50 h), garlic 3.1133 g)?
Answer: 4.4

Question: What about the “metabolite in urine related” value (urine set U XIX, 1 h post (1.00 h), garlic 3.1133 g) of the same molecule?
Answer: 41.2

Question: What about the “metabolite in urine related” value (urine set U XIX, 2 h post (2.00 h), garlic 3.1133 g) of the same molecule?
Answer: 77.6

Question: What about the “metabolite in urine related” value (urine set U XIX, 4 h post (4.00 h), garlic 3.1133 g) of the same molecule?
Answer: 41.4

Question: And the “metabolite in urine related” value (urine set U XIX, 6 h post (6.20 h), garlic 3.1133 g)?
Answer: 30.7

Question: What about the “metabolite in urine related” value (urine set U XIX, 8 h post (7.93 h), garlic 3.1133 g) of the same molecule?
Answer: 24.3

Question: And the “metabolite in urine related” value (urine set U XIX, 24 h post (23.98 h), garlic 3.1133 g)?
Answer: 1.8

Question: What about the “metabolite in urine related” value (urine set U XIX, pre (-0.07 h), garlic 3.1133 g) of the same molecule?
Answer: < LOD^3

Question: And the “metabolite in urine related” value (urine set U XVII, 0.5 h post (0.58 h), garlic 3.1559 g)?
Answer: 0.3

Question: What about the “metabolite in urine related” value (urine set U XVII, 1 h post (1.00 h), garlic 3.1559 g) of the same molecule?
Answer: 4.7

Question: What about the “metabolite in urine related” value (urine set U XVII, 2 h post (2.17 h), garlic 3.1559 g) of the same molecule?
Answer: 32.1

Question: And the “metabolite in urine related” value (urine set U XVII, 4 h post (4.00 h), garlic 3.1559 g)?
Answer: 27.6

Question: And the “metabolite in urine related” value (urine set U XVII, 6 h post (6.08 h), garlic 3.1559 g)?
Answer: 3.0

Question: And the “metabolite in urine related” value (urine set U XVII, 8 h post (8.00 h), garlic 3.1559 g)?
Answer: 5.1

Question: And the “metabolite in urine related” value (urine set U XVII, 24 h post (23.92 h), garlic 3.1559 g)?
Answer: 0.7

Question: What about the “metabolite in urine related” value (urine set U XVII, pre (-0.08 h), garlic 3.1559 g) of the same molecule?
Answer: traces^3

Question: And the “metabolite in urine related” value (urine set U XVIII, 0.5 h post (0.63 h), garlic 3.1981 g)?
Answer: 14.7

Question: What about the “metabolite in urine related” value (urine set U XVIII, 1 h post (1.05 h), garlic 3.1981 g) of the same molecule?
Answer: 40.5

Question: And the “metabolite in urine related” value (urine set U XVIII, 2 h post (2.00 h), garlic 3.1981 g)?
Answer: 68.1

Question: What about the “metabolite in urine related” value (urine set U XVIII, 4 h post (3.97 h), garlic 3.1981 g) of the same molecule?
Answer: 56.4

Question: What about the “metabolite in urine related” value (urine set U XVIII, 6 h post (5.97 h), garlic 3.1981 g) of the same molecule?
Answer: 26.3

Question: And the “metabolite in urine related” value (urine set U XVIII, 8 h post (8.30 h), garlic 3.1981 g)?
Answer: 42.2

Question: What about the “metabolite in urine related” value (urine set U XVIII, 24 h post (24.13 h), garlic 3.1981 g) of the same molecule?
Answer: 1.3

Question: What about the “metabolite in urine related” value (urine set U XVIII, pre (-0.08 h), garlic 3.1981 g) of the same molecule?
Answer: < LOD^3
